Test results reported in patent publication US10344065B2, “Method for treating Alzheimer's disease and method for downregulating protein aggregation in brain” (National Cheng Kung University, priority 2017, dated 2019).
Residues, ends and D or L forms follow the SMILES beside them. *: point of attachment. Cbz = O=C(OCc1ccccc1)*

Assays:
[1] = test system: MCF7 cell lysates; assay: Zfration and degradation of proteins in MCF7 cell lysates; assay type: biochemical, human
Experimental: (§1) Aliquots of Zfra-deficient breast MCF7 cell lysates (100 μg) were incubated with Zfra (100 μM) for various durations in the presence or absence of proteasome inhibitor MG-132 (50 μM). Zfra formed complexes with cytosolic proteins (or zfrated; see arrows), and disappeared with time even in the presence of MG-132. (B and C) Zfra-negative prostate DU145 cells were exposed to UV (160-720 mJ/cm^2), and aliquots of whole cell lysates (100 μg) were incubated with Zfra peptide (100 μM) for various durations (in PBS) at 37° C., in the presence of a cocktail of protease inhibitors (1:10 dilution). Zfrated proteins (70, 72, 200 kDa and minor band ladders) and exogenous Zfra peptide were degraded with time (>99% in 120 minutes; reducing SDS-PAGE). Synthetic Zfra was in PBS at the first lane at the left, and in Milli-Q water at the last lane at the right. Zfra-free control lysates had only less than 10% degradation of total proteins after incubation for 120 minutes, in the presence of protease inhibitors (data not shown). In the diagram of FIG. 6C, at each time points, the left bar is cell lysates, and the right bar is Zfra peptide. (D) L929 cell lysates (100 μg) were incubated with Zfra peptide (100 μM) for 30 minutes at 37° C. (in PBS). A 30-kDa protein was zfrated in 30 minutes, and 22- and 80-kDa protein was zfrated rapidly and then degraded in 30 minutes (reducing SDS-PAGE). *A nonspecific immunoreactive or a zfrated protein in L929 cells. (E) Zfra peptide (100 μM) bound recombinant His-Tau (2 μg protein) in PBS for 24 hours at room temperature, and the resulting complex resisted dissociation by reducing SDS-PAGE. Abbreviation: Zfra, zinc finger-like protein that regulates apoptosis.
To continue to investigate how Zfra reduces protein aggregation in vivo, we examined whether Zfra interacts with cytosolic proteins and accelerates protein degradation. Zfra peptide at high concentrations may undergo self-polymerization especially in PBS. […] Zfra-deficient human breast MCF7 cells were used. […]

[2] = Self-polymerization of Zfra peptide in PBS (reducing SDS-PAGE); assay type: physicochemical; conditions: >1 mM in PBS; molecular sizes from 3.5 kDa up to 78 and 80 kDa
[3] = biological target: T1, Aβ42 (Homo sapiens, UniProt P05067); assay: Aβ42 aggregation in vitro (SDS-PAGE); assay type: biochemical; conditions: 100 μM each peptide, room temperature, 24 hours or less
T1 construct: purchased AnaSpec
T1 sequence (P05067 672-713): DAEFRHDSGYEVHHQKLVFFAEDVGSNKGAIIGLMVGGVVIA
Source text: FIG. 5 includes photos and diagrams showing that Zfra suppresses polymerization or aggregation of serine-containing TPC6AΔ and other peptides in PBS. […] The mixtures were subjected to nonreducing sodium dodecyl sulfate polyacrylamide gel electrophoresis (SDS-PAGE). (A) Full-length Zfra or red-fluorescent TMR-Zfra blocked aggregation of Aβ42 (lanes 3, 5, and 7). […] The membrane was stained with antibody against Aβ. (B) Zfra4-10 and one of the TPC6AΔ peptides were resuspended in Milli-Q water or PBS and incubated for 24 hours at room temperature. Zfra4-10 suppressed the polymerization of serine-containing peptides. Reduction in intensity=[1−(Z.P)/(Z+P)]×100%, where Z=Zfra4-10, P=an indicated peptide, and Z.P=peptide mixture. […] Zfra4-10 suppressed polymerization of these peptides in PBS.
Zfra and serine-containing peptides were synthesized by Genemed Synthesis (San Antonio, Tex., USA), (1) Zfra1-31, […] (SEQ ID NO: 2); (2) Zfra4-10, RRSSSCK (SEQ ID NO: 1); (3) WWOX7-21, AGLDDTDSEDELPPG (SEQ ID NO: 3); (4) pS14-WWOX7-21, AGLDDTDpSEDELPPG (SEQ ID NO: 4); (5). […]

[4] = test system: pyramidal neurons in the hippocampi; assay: Melanoma B16F10-induced neurodegeneration in nude mice; assay type: in vivo, mouse; conditions: nude mice, B16F10; data not shown
Experimental: FIG. 4 includes photos showing that Zfra suppresses melanoma B16F10-mediated neurodegeneration in the hippocampus. Nude mice were preinjected with 100 μL, of sterile Milli-Q water or Zfra4-10 (1 mM in sterile water) in 3 consecutive weeks. After treatment for a week, these mice were inoculated with melanoma B16F10 cells on both flanks (2×10^5 cells in 100-μL, PBS). Mice were sacrificed when the tumor sizes grew up to 2000-3000 mm^3 in about a month. (A) Zfra blocked neurodegeneration in the hippocampus (top panel) and prevented the formation of TPC6AΔ plaques in the cortex (bottom panel), which negatively correlates with pS14-WWOX expression. Note the presence of condensed apoptotic nuclei in the hippocampal neurons in the control mice, (B) Metastasis of B16F10 cells to the lung was blocked in Zfra-treated mice. Compared to controls, Zfra suppressed p-S14WWOX expression in the lung by ˜72% suppression (three sections). […] (C and D) The non-spatial learning and memory were determined by novel object recognition task for both 3×Tg and Wwox+/− mice. […]
Six- to eight-week-old male nude (BALB/cAnN.Cg-Foxn1^nu/CrlNarl) mice (National Laboratory Animal Center, Taiwan) were used. […] Tumor volumes were measured daily and calculated using the equation, D×(d)^2/2, where D and d are the major and minor diameters, respectively. […] Z-cell distribution in organs was determined under fluorescence microscopy.

[5] = test system: L929 cell lysates; assay: Zfration and degradation of proteins in L929 cell lysates; assay type: biochemical, murine
Experimental: as §1, with “A 30-kDa protein was zfrated in 30 minutes, and 22- and 80-kDa protein was zfrated rapidly and then degraded in 30 minutes (reducing SDS-PAGE). *A nonspecific immunoreactive or a zfrated protein in L929 cells. (E) Zfra peptide (100 μM) bound recombinant His-Tau (2 μg protein) in PBS for 24 hours at room temperature, and the resulting complex resisted dissociation by reducing SDS-PAGE. Abbreviation: Zfra, zinc finger-like protein that regulates apoptosis.” left out

| Compound | effect of proteasome inhibitor on degradation of zfrated proteins ([1]; MCF7 lysates with Zfra, MG-132 50 μM) | degradation of zfrated proteins ([1]; MCF7 lysates, with or without MG-132) | binding of cellular proteins (zfration) ([1]; MCF7 lysates, complexes resisted SDS and β-mercaptoethanol) | self-polymerization [2] | aggregation of Aβ42 [3] | results in similar experiments (melanoma-induced neurodegeneration, metastasis, pS14-WWOX) [4] | zfration and degradation of 80 and 22 kDa proteins ([5]; 37° C., PBS) | zfration of 30-kDa protein ([5]; 30 minutes) |
| --- | --- | --- | --- | --- | --- | --- | --- | --- |
| CC(C)C[C@@H](C=O)NC(=O)[C@H](CC(C)C)NC(=O)[C@H](CC(C)C)NC(=O)OCc1ccccc1 [MG-132, reference compound] (Cbz-Leu-Leu-Leu-aldehyde) | did not block but enhanced | – | – | – | – | – | – | – |
| MSSRRSSSCKYCEQDFRAHTQKNAAFPFLAN (MSSRRSSSCKYCEQDFRAHTQKNAATPFLAN; Synthesized pepetide) [Zfra1-31, full-length 31-amino-acid zinc finger-like protein that regulates apoptosis] | – | degraded with time of incubation | Zfra-bound cellular proteins | underwent self-polymerization | blocked | Comparable results | rapidly zfrated and then degraded in 30 minutes | became zfrated |
